Where two headings read alike, the source gives them in different places.
What was measured:
LmajNT1 = test: [3H]-thymidine uptake by L. major promastigotes; format: cell-based, Leishmania major
Procedure: (§1) Using the standard uptake technique as described for T. brucei and Leishmania species ([Wallace et al., 2002], [Al-Salabi and De Koning, 2005], [Gudin et al., 2006]), the dose- or time-dependent uptake of radiolabeled permeants was investigated.
(§2) Briefly, cells in the mid-to-late logarithmic stage of growth were harvested by centrifugation for 10 min at 1500×g. The cells were washed twice with transport assay buffer (AB: 33 mM HEPES, 98 mM NaCl, 4.6 mM KCl, 0.55 mM CaCl2, 0.07 mM MgSO4, 5.8 mM NaH2PO4, 0.3 mM MgCl2, 23 mM NaHCO3, 14 mM glucose, pH 7.3), resuspended at a density of 10^8 cells ml^−1 in AB, and left for 20–30 min at room temperature to recover from centrifugation stress. One hundred microliters of cell suspension was incubated at ambient temperature for a predetermined time with 100 μl radiolabeled test compound, in the presence or absence of unlabeled substrate or other competitive inhibitors. The incubation was terminated by the addition of ice-cold stop solution (AB containing saturating levels, usually 10 mM, of unlabeled permeant) and centrifugation through oil for 1 min at 13,000 × g. […] Radioactivity was determined by liquid scintillation counting in a Beckman LS6000 TA scintillation counter. Saturation data, inhibition data, and time courses were plotted to equations for linear or non-linear regression (hyperbolic or sigmoid curves), as appropriate. All experiments were performed in triplicate and on at least three independent occasions.
Subsequent experiments were performed with a 5 min incubation time.

[1] = test system: L. mexicana promastigotes WT; test: Alamar blue drug sensitivity assay, L. mexicana WT; format: cell-based, Leishmania mexicana; details: Leishmania mexicana, 72 h, WT promastigotes, 72 h + 48 h with dye, n ≥ 4
Procedure: (§3) Sensitivity assays of Leishmania strains to various drugs using the viability dye resazurin (Alamar Blue) (Sigma-Aldrich) were performed using a protocol adapted from [Räz et al. (1997)], as described ([Al-Salabi et al., 2003], [Gould et al., 2008]). Pentamidine and diminazene were used as non-nucleoside controls and were obtained from Sigma-Aldrich, as were many purines, pyrimidines, and analogs, with the exceptions of 2-thiouridine and 4-thiouridine (TriLink BioTechnologies, San Diego, CA); 5′-deoxyuridine, and 2′-3′-dideoxyuridine (Carbosynth, Compton, UK); 5-fluoro-2′-deoxyuridine (Fluka); and 2-thiouracil (ICN Biomedicals, Cambridge, UK). A preliminary promastigote culture was diluted to a density of 2 × 10^6 cells/ml, of which 100 μl was added to wells of 96-well plates pre-loaded with 100 μl of doubling dilutions of test compounds, resulting in a final density of 1 × 10^6 cells/ml; the dilutions were over 2 rows of the plate (23 concentrations), with the last well containing only medium and serving as the no-drug control. The plates were incubated at 25 °C for 72 h before adding the Alamar Blue dye (20 μl of 12.5 mg resazurin sodium salt (Sigma) in 100 ml phosphate buffered saline (PBS; pH 7.4)). Since Leishmania parasites metabolize the Alamar Blue dye slower than trypanosomes ([Gould et al., 2008]), the cells were incubated with the dye for a further period of 48 h before measuring the fluorescence, using a FLUOstar Optima fluorimeter (BMG Labtech) at wavelengths of 544 nm for excitation and 620 nm for emission. […] Each experiment was performed independently at least 4 times; statistical significance was determined using Student's unpaired t-test.

[2] = test system: L. major promastigotes WT; test: Alamar blue drug sensitivity assay, L. major WT; format: cell-based, Leishmania major; details: Leishmania major, WT promastigotes, 72 h + 48 h with dye, n ≥ 4
Procedure: as §3

Lmex5F2′dURes = test: microbe, parasite or virus in culture; format: cell-based, Leishmania mexicana; details: for EC50: Leishmania mexicana; for RF (Resistance Factor = IC50 (resistant clone)/IC50 (WT)): Lmex5F2′dURes vs L. mexicana WT
Procedure: as §3

Lmex5FURes = test: microbe, parasite or virus in culture; format: cell-based, Leishmania mexicana; details: for EC50: Leishmania mexicana; for RF (Resistance Factor = IC50 (resistant clone)/IC50 (WT)): Lmex5FURes vs L. mexicana WT
Procedure: as §3

Lmaj5F2′dURes = test: microbe, parasite or virus in culture; format: cell-based, Leishmania major; details: for EC50: Leishmania major; for RF (Resistance Factor = IC50 (resistant clone)/IC50 (WT)): Lmaj5F2′dURes vs L. major WT
Procedure: as §3

Lmaj5FURes = test: microbe, parasite or virus in culture; format: cell-based, Leishmania major; details: for EC50: Leishmania major; for RF (Resistance Factor = IC50 (resistant clone)/IC50 (WT)): Lmaj5FURes vs L. major WT
Procedure: as §3

LmexNT1 [3] = format: cell-based, Leishmania mexicana
Procedure: as §1, §2
L. donovani is known to express one pyrimidine nucleoside transporter, LdNT1, which also transports adenosine ([Vasudevan et al., 1998], [De Koning et al., 2005]). In order to investigate whether this model held true for L. mexicana, the uptake of [^3H]-thymidine was studied. […] Care was taken throughout this study that whenever inhibition constants (Ki) or Michaelis-Menten constants (Km) were determined the conditions used had been verified to be well within the linear range of uptake.

LmexNT1 [4] = test: [3H]-adenosine uptake by L. mexicana promastigotes; format: cell-based, Leishmania mexicana; details: inhibition of 0.05 μM [3H]-adenosine uptake; read-out: Ki
Excerpt: Using the standard uptake technique as described for T. brucei and Leishmania species ([Wallace et al., 2002], [Al-Salabi and De Koning, 2005], [Gudin et al., 2006]), the dose- or time-dependent uptake of radiolabeled permeants was investigated. The following radiolabels and specific activities were used: [^3H]-thymidine (Perkin Elmer; 56.6 Ci/mmol); [^3H]-adenosine (American Radiolabeled Chemicals UK; 40 Ci/mmol); [^3H]-uridine (American Radiolabeled Chemicals UK; 30 Ci/mmol); [^3H]-uracil (Perkin Elmer; 24.8 Ci/mmol); [^3H]-inosine (American Radiolabeled Chemicals UK; 20 Ci/mmol); [^3H]-5-fluorouracil (Moravek; 20 Ci/mmol).
as §2
We next investigated the transport of [^3H]-adenosine in L. mexicana promastigotes, which according to the efficient inhibition of [^3H]-thymidine by adenosine, should be taken up with high affinity.

LmexNT1 [5] = format: cell-based, Leishmania mexicana; remark: listed apart in the source
Procedure: as §1, §2

LmexUU1 = format: cell-based, Leishmania mexicana
Procedure: as §1, §2

[6] = inhibition of 0.25 μM [3H]-thymidine uptake (total LmajNT1.1 + LmajNT1.2), 5 min
[7] = inhibition of [3H]-uracil uptake, 4 min

## O=c1ccn([C@@H]2O[C@H](CO)[C@@H](O)[C@H]2O)c(=S)[nH]1 [2-thiouridine]
LmajNT1
  Ki: 765 ± 68 µM
[1]
  EC50: > 5000 µM
[2]; 72 h
  EC50: > 5000 µM

## O=c1ccn([C@H]2CC[C@@H](CO)O2)c(=O)[nH]1 [2′,3′-dideoxyuridine]
LmajNT1
  Ki: > 2500 µM
[1]
  EC50: > 5000 µM
[2]; 72 h
  EC50: > 5000 µM

## O=C1C=CN([C@@H]2O[C@H](CO)[C@@H](O)[C@H]2O)C(=O)C1 [3-deazauridine]
LmajNT1; [6]
  Ki: 3670 ± 420 µM

## Cc1cn([C@H]2CC[C@@H](CO)O2)c(=O)[nH]c1=O [3′-deoxythymidine]
LmajNT1; [6]
  Ki: 1250 ± 44.5 µM

## O=c1ccn([C@@H]2O[C@H](CO)C[C@H]2O)c(=O)[nH]1 [3′-deoxyuridine]
[1]
  EC50: > 5000 µM
[2]; 72 h
  EC50: > 5000 µM

## O=c1[nH]c(=S)ccn1[C@@H]1O[C@H](CO)[C@@H](O)[C@H]1O [4-thiouridine]
LmajNT1; [6]
  Ki: 69 ± 18.1 µM
[1]
  EC50: > 5000 µM
[2]; 72 h
  EC50: > 5000 µM

## O=c1[nH]c(=O)n([C@H]2C[C@H](O)[C@@H](CO)O2)cc1Br [5-bromo-2′-deoxyuridine]
[1]
  EC50: > 5000 µM
[2]; 72 h
  EC50: > 5000 µM

## O=c1[nH]cc(Br)c(=O)[nH]1 [5-bromouracil]
[1]
  EC50: > 5000 µM
[2]; 72 h
  EC50: > 5000 µM

## O=c1[nH]c(=O)n([C@@H]2O[C@H](CO)[C@@H](O)[C@H]2O)cc1Br [5-bromouridine]
[1]
  EC50: > 5000 µM
[2]; 72 h
  EC50: > 5000 µM

## O=c1[nH]c(=O)n([C@H]2C[C@H](O)[C@@H](CO)O2)cc1Cl [5-chloro-2′-deoxyuridine]
[1]
  EC50: > 5000 µM
[2]; 72 h
  EC50: > 5000 µM

## O=c1[nH]c(=O)n([C@@H]2O[C@H](CO)[C@@H](O)[C@H]2O)cc1Cl [5-chlorouridine]
[1]
  EC50: > 5000 µM
[2]; 72 h
  EC50: > 5000 µM

## C[C@H]1O[C@@H](n2cc(F)c(=O)[nH]c2=O)[C@H](O)[C@@H]1O [5-fluoro,5′-deoxyuridine]
LmajNT1; [6]
  Ki: 168 ± 32 µM

## Nc1nc(=O)n([C@@H]2O[C@H](CO)[C@@H](O)[C@H]2O)cc1F [5-fluorocytidine]
[1]
  EC50: > 5000 µM
[2]; 72 h
  EC50: > 5000 µM

## Nc1nc(=O)[nH]cc1F [5-fluorocytosine]
[1]
  EC50: > 5000 µM
[2]; 72 h
  EC50: > 5000 µM

## O=c1[nH]c(=O)n([C@H]2C[C@H](O)[C@@H](CO)O2)cc1I [5-iodo-2′-deoxyuridine]
[1]
  EC50: > 5000 µM
[2]; 72 h
  EC50: > 5000 µM

## O=c1[nH]c(=O)n([C@@H]2O[C@H](CO)[C@@H](O)[C@H]2O)cc1I [5-iodouridine]
[1]
  EC50: > 5000 µM
[2]; 72 h
  EC50: > 5000 µM

## Nc1nc(=O)n([C@H]2C[C@H](O)[C@@H](CO)O2)cc1F [5F-2′dCtd, 5-Fluoro-2′-deoxycytidine]
[1]; read-out: EC50
  EC50: 17.3 ± 1.8 µM
Lmex5F2′dURes
  EC50: > 5000 µM
  RF (Resistance Factor = IC50 (resistant clone)/IC50 (WT)): >290
Lmex5FURes
  EC50: 24 ± 0.9 µM
  RF (Resistance Factor = IC50 (resistant clone)/IC50 (WT)): 1.4
[2]; read-out: EC50
  EC50: 38 ± 1.7 µM
Lmaj5F2′dURes
  EC50: 3870 ± 621 µM
  RF (Resistance Factor = IC50 (resistant clone)/IC50 (WT)): 101
Lmaj5FURes
  EC50: 17 ± 1.8 µM
  RF (Resistance Factor = IC50 (resistant clone)/IC50 (WT)): 0.4

## O=c1ccn([C@@H]2O[C@H](CF)[C@@H](O)[C@H]2O)c(=O)[nH]1 [5′-deoxy-5′-fluorouridine]
[1]
  EC50: > 5000 µM
[2]; 72 h
  EC50: > 5000 µM

## C[C@H]1O[C@@H](n2ccc(=O)[nH]c2=O)[C@H](O)[C@@H]1O [5′dUrd, 5′-deoxyuridine]
[1]; read-out: EC50
  EC50: 461 ± 80 µM
[2]; read-out: EC50
  EC50: 525 ± 46 µM

## O=c1cn[nH]c(=O)[nH]1 [6-azauracil]
[1]
  EC50: > 5000 µM
[2]; 72 h
  EC50: > 5000 µM

## Nc1ccn([C@@H]2O[C@H](CO)[C@@H](O)[C@H]2O)c(=O)n1 [cytidine]
LmexNT1 [3]; inhibition of 1 μM [3H]-thymidine uptake, 20 s
  Ki: 82 ± 5 µM
LmexNT1 [4]
  Ki: 149 ± 18 µM
LmexNT1 [5]; inhibition of 0.25 μM [3H]-uridine uptake in the presence of 1 mM uracil
  Ki: 78.6 ± 15.1 µM
LmajNT1; [6]
  Ki: 1150 ± 108 µM

## Nc1cc[nH]c(=O)n1 [cytosine]
LmexUU1; [7]
  Ki: > 5000 µM

## N=C(N)c1ccc(/N=N/Nc2ccc(C(=N)N)cc2)cc1 [diminazene]
[1]; read-out: EC50
  EC50: 7.4 ± 0.3 µM
Lmex5F2′dURes
  EC50: 13.9 ± 1.9 µM
  RF (Resistance Factor = IC50 (resistant clone)/IC50 (WT)): 1.8
Lmex5FURes
  EC50: 7.2 ± 1.4 µM
  RF (Resistance Factor = IC50 (resistant clone)/IC50 (WT)): 0.97
[2]; read-out: EC50
  EC50: 9.8 ± 0.3 µM
Lmaj5F2′dURes
  EC50: 24.6 ± 1.5 µM
  RF (Resistance Factor = IC50 (resistant clone)/IC50 (WT)): 2.5
Lmaj5FURes
  EC50: 10 ± 1.6 µM
  RF (Resistance Factor = IC50 (resistant clone)/IC50 (WT)): 1.02

## O=c1[nH]cnc2nc[nH]c12 [hypoxanthine]
LmexNT1 [3]
  Ki: > 1000 µM
LmexNT1 [5]
  Ki: > 1000 µM
LmexUU1
  Ki: > 500 µM

## N=C(N)c1ccc(OCCCCCOc2ccc(C(=N)N)cc2)cc1 [pentamidine]
[1]; read-out: EC50
  EC50: 4.6 ± 0.2 µM
Lmex5FURes
  EC50: 5 ± 0.6 µM
  RF (Resistance Factor = IC50 (resistant clone)/IC50 (WT)): 1.1
[2]; read-out: EC50
  EC50: 3.3 ± 0.2 µM

## Cc1c[nH]c(=O)[nH]c1=O [thymine]
LmexUU1; [7]
  Ki: 560 ± 190 µM
LmajNT1; [6]
  Ki: > 1000 µM

Source: PMC5407577, “Functional and genetic evidence that nucleoside transport is highly conserved in Leishmania species: Implications for pyrimidine-based chemotherapy” (International Journal for Parasitology: Drugs and Drug …, 2017)
